Source: ChEMBL document CHEMBL1156829 (Proc Natl Acad Sci U S A, 2008)

Legend:
Plasmodium falciparum [1] = experiment: NOVARTIS: Inhibition of Plasmodium falciparum W2 (drug-resistant) proliferation in erythrocyte-based infection assay; assay type: functional, organism-based; details: Plasmodium falciparum, W2; read-out: EC50
[2] = NOVARTIS: Cytotoxicity against human hepatocellular carcinoma cell line (Huh7); assay type: toxicity, cell-based, Huh-7; details: Huh7 cells (hepatocellular carcinoma cell line)
Plasmodium falciparum [3] = experiment: NOVARTIS: Inhibition of Plasmodium falciparum 3D7 (drug-susceptible) proliferation in erythrocyte-based infection assay; assay type: functional, organism-based; details: Plasmodium falciparum, 3D7

| SMILES | EC50 (Plasmodium falciparum [1]) [nM] | CC50 [2] [nM] | EC50 (Plasmodium falciparum [3]) [nM] |
| --- | --- | --- | --- |
| CCN(CC)CCCN(Cc1cc2ccc(OC)cc2[nH]c1=O)C(=S)NCc1ccccc1 | 2410 | 25800 | 3910 |
| CCN1CCC(N2CCC(n3c(C4CCC4)nc4cc(F)ccc43)CC2)CC1 | 2170 | 21500 | 453 |
| CCOC(=O)C1=C(C)NC2=C(C(=O)CC(c3ccc(OC)c(OC)c3)C2)C1c1c(F)cccc1Cl (configuration not stated) | 23 | > 100000 | 76.7 |
| CCc1ccc2[nH]c(=O)c(CN(CCN(CC)CC)C(=S)NCCCN(C)C)cc2c1 | 1530 | 38200 | 2270 |
| CCN1CCN(c2c(C(=O)c3ccccc3)cnc3cc(OC)c(OC)cc23)CC1 | 1220 | > 100000 | 3020 |
| c1ccc(C[C@H]2CN(c3ccccc3)CCN2CCNCCOc2ccccc2)cc1 | 200 | > 5320 | 261 |
| COc1ccc(Nc2nc(NN=Cc3cccc(Cl)c3)nc(Nc3ccc([N+](=O)[O-])cc3)n2)cc1 | 717 | > 100000 | 603 |
| CCN1CCN(c2cc(C)c3cc(NC(=O)/C=C/c4ccccc4Cl)ccc3n2)CC1 | > 1250 | > 10000 | 966 |
| CCc1ccc(C=NNC(=O)COc2ccc3c(c2)OCO3)cc1 | > 975 | > 10000 | > 1230 |
| CC(C)N1CCCC(C(=O)Nc2ccc(-c3nc4ccccc4[nH]3)cc2)C1 (configuration not stated) | 593 | > 10000 | 969 |
| Cc1noc(C)c1S(=O)(=O)N(Cc1ccccc1)CC(O)CN1CCC(NC(=O)c2cccc3ccccc23)C1 (configuration not stated) | < 6.52 | > 10000 | 127 |
| Cc1sc2nc(C3CC3)n(C3CCN(C(=O)C4CC=CCC4)CC3)c(=O)c2c1C (configuration not stated) | > 560 | > 10000 | > 1250 |
| O=C(CCl)Nc1ccc(CN2CCCCC2)cc1 | 911 | 34100 | 976 |
| CCC(C)(C#CCN1CCCC1)OC(C)=O (configuration not stated) | > 1250 | > 10000 | > 1050 |
| COc1cc(CNc2ccc(N3CCCCC3)cc2)cc(Cl)c1OCc1ccc(F)cc1 | 1540 | > 100000 | 3040 |
| COc1ccc(CNc2cc(-c3ccc(F)c(F)c3)nc3ccnn23)cc1 | 687 | > 100000 | 675 |
| CCCN(CCC)CCCNc1ccc(C(=O)Nc2ccc(C)c(F)c2)cc1[N+](=O)[O-] | 268 | 10600 | 146 |
| CN(C)/C=C1\Oc2ccccc2N=C1Cl | 132 | > 10000 | 153 |
| COc1ccc(C(=O)N(CCCC(C)Nc2cc(OC)cc3cccnc23)Cc2ccccc2OC)cc1 (configuration not stated) | 270 | 5180 | 713 |
| Cc1ccc(CSCc2ccc(C(=O)NC3CC3)o2)cc1 | 133 | > 100000 | 418 |
| CCN(CC)CCNC(=O)c1cc(-c2cc3ccccc3s2)cc(-n2cnnn2)c1 | 151 | 21300 | 61.6 |
| CCCCN(C)Cc1cc(-c2cccc(OC)n2)ccc1O | 90.3 | > 100000 | 875 |
| CCOC(=O)c1cnn(-c2ccnc3cc(Cl)ccc23)c1CNC(C)c1ccco1 (configuration not stated) | 448 | 38900 | 795 |

| SMILES | EC50 (Plasmodium falciparum [1]) [nM] | CC50 [2] [nM] | EC50 (Plasmodium falciparum [3]) [nM] |
| --- | --- | --- | --- |
| CCOC(=O)N1CCN(S(=O)(=O)c2ccc(C(=O)Nc3sc4c(c3C(N)=O)CCN(CC)C4)cc2)CC1 | 1390 | 20400 | > 12500 |
| COc1ccccc1N1CCN(Cc2cc(C)c(C)cc2O)CC1 | 80.5 | 58000 | 383 |
| CN(CCCNc1ccnc2cc(Cl)ccc12)S(=O)(=O)c1ccc2ccccc2c1 | 200 | > 5540 | 282 |
| O=C1CC(c2ccc([N+](=O)[O-])cc2)C2=C(CC(c3ccc(F)cc3)CC2=O)N1 (configuration not stated) | 1070 | > 100000 | 2020 |
| CN(c1ncnc2sc3c(c12)CCCC3)C1CCCCC1 | < 37.4 | > 10000 | > 921 |
| COCCSc1nc2sc3c(c2c(=O)n1-c1ccc(OC)cc1)CCN(C)C3 | 1770 | > 100000 | 3020 |
| C=CCNc1cc(-c2ccccn2)nc(-c2ccccn2)n1 | 192 | > 10000 | 125 |
| CCNC1=C(C(=O)c2ccccc2)N(CC(=O)c2ccc(Br)cc2)S(=O)(=O)c2ccccc21 | 966 | > 10000 | > 1250 |
| Brc1ccc(C=NNc2nc3ccccc3[nH]2)cc1 | 674 | 55800 | 226 |
| CCOC(=O)N1CCc2c(sc(NCc3ccc(C)o3)c2C(=O)Nc2ccc(OC)cc2OC)C1 | 3010 | > 100000 | 9100 |
| CCC(C)(C)C1CCc2sc3ncnc(NN=Cc4c(Cl)cccc4Cl)c3c2C1 (configuration not stated) | 904 | > 100000 | 733 |
| CC(C)N(CC(=O)Nc1cc(C(C)(C)C)nn1-c1ccc(Cl)cc1)C(=O)c1ccc(C(C)(C)C)cc1 | 4480 | > 100000 | 9960 |
| CCC(C(=O)Oc1ccccc1-c1nc2cc(C)ccn2c1NC(C)(C)CC(C)(C)C)c1ccccc1 (configuration not stated) | 34.7 | > 10000 | 894 |
| COc1ccc(C(=O)Nc2ccc(-c3nc4ccc(NC(=O)c5ccc(OC)cc5)cc4[nH]3)cc2)cc1 | 810 | 8780 | 800 |
| C[N+](C)(C)c1ccc2cc(Br)c3ccccc3c2c1 | 1370 | > 10000 | 759 |
| COc1c(C=NNc2nc(Nc3ccc([N+](=O)[O-])cc3)nc(N3CCN(C)CC3)n2)cccc1[N+](=O)[O-] | 493 | 56900 | 340 |
| OC(CNCC1COc2ccccc2O1)c1ccccc1 (configuration not stated) | 1000 | > 100000 | > 12200 |
| CC(NC(=O)C(=O)N1CCCCC1)C(c1cccs1)N1CCOCC1 (configuration not stated) | 675 | > 100000 | > 1680 |
| CCOC(=O)c1[nH]nc(C(=O)c2ccccc2)c1-c1ccccc1 | > 1350 | > 10000 | > 393 |
| COc1cc(NC(C)CCCN(Cc2ccccc2OC)C(=O)C(Cl)Cl)c2ncccc2c1 (configuration not stated) | 554 | > 10000 | > 1500 |
| CCC(c1nc2ccccc2c(=O)n1CCOC)N1CCNCC1 (configuration not stated) | > 469 | > 10000 | 369 |
| CCCCSc1oc(C)nc1[P+](c1ccccc1)(c1ccccc1)c1ccccc1 | 583 | 2640 | 203 |
| CC(C)CN1CCN(c2nc(C#N)c3c(c2C(=S)NC2CCCCC2)CC(C)(C)OC3)CC1 | 319 | > 10000 | 370 |

| SMILES | EC50 (Plasmodium falciparum [1]) [nM] | CC50 [2] [nM] | EC50 (Plasmodium falciparum [3]) [nM] |
| --- | --- | --- | --- |
| CC(=O)Oc1ccccc1-c1nc2cc(C)ccn2c1NC(C)(C)CC(C)(C)C | < 5.33 | > 10000 | 389 |
| Cc1c[n+](Cc2ccccc2)ccc1/C=C/c1ccccc1 | 543 | > 10000 | 502 |
| CCCCN(C(=O)c1ccccc1C)c1nc(-c2cc(OC)ccc2OC)cs1 | 2860 | > 100000 | 1720 |
| CCn1c(N=Nc2ccc(OC)cc2)nc2ccccc21 | 115 | 13000 | 97.5 |
| CC(=O)N(C)C1=C(N2CCOCC2)C(=O)c2ccccc2C1=O | 288 | 590 | 254 |
| Cc1ccc(C=Cc2ccc3ccccc3[n+]2C)cc1 | 1480 | 16300 | 59.4 |
| COc1ccc(C2C(C(=O)Nc3cccc(Cl)c3)c3ccccc3C(=O)N2C2CCCCC2)cc1 (configuration not stated) | 930 | > 100000 | 1550 |
| COC(=O)c1cccc(NC(=O)C(=Cc2cccc([N+](=O)[O-])c2)NC(=O)c2ccccc2OC)c1 | 2910 | > 100000 | 994 |
| CCCN1CCc2c(sc3nc(SCC(=O)OC)nc(N)c23)C1 | 710 | > 100000 | 1660 |
| Cc1cccc(C)c1NC(=O)C(O)c1ccc(Cl)cc1Cl (configuration not stated) | 2200 | > 10000 | > 1250 |
| Cc1ccccc1CN1CCN(CC=Cc2ccccc2)CCC1=O | 531 | > 100000 | 1430 |
| CCn1c(SCC(=O)N(c2ccccc2)c2ccccc2)nc2sc3c(c2c1=O)CCN(C)C3 | 7340 | > 100000 | > 5080 |
| Cc1noc(C)c1C(=O)N1CCC(O)(c2ccccn2)CC1 | > 1400 | > 10000 | > 563 |
| Cc1ccc(C)c(NC(=O)c2c(-c3c(Cl)cccc3Cl)noc2C)c1 | 443 | > 70700 | 218 |
| Cc1oc2c(c1C(=O)N1CCN(C)CC1)C(=O)c1ccccc1C2=O | 335 | 5460 | 829 |
| Cc1ccc(NC(=O)c2ccc(NCCCN3CC(C)CC(C)C3)c([N+](=O)[O-])c2)cc1F (configuration not stated) | 736 | > 53600 | 219 |
| CN1C=C(c2ccc3ccccc3n2)C(C[N+](=O)[O-])c2ccccc21 (configuration not stated) | 2110 | > 10000 | 791 |
| Oc1ccccc1CN1CCN(C(c2ccccc2)c2ccccc2)CC1 | 166 | 8920 | 744 |
| Cc1cc(Nc2ccc(I)cc2)n2ncnc2n1 | 3590 | > 100000 | 1560 |
| C=C[C@H]1CN2CC[C@H]1C[C@H]2[C@H](OC(=O)CC)c1ccnc2ccccc12 | 166 | > 10000 | 364 |
| CCOC(=O)C1=C(C)NC2=C(C(=O)CC(c3ccc(OC)cc3)C2)C1c1ccccc1F (configuration not stated) | 27.1 | > 100000 | 74.1 |
| Oc1ccc(-c2ccccc2)cc1CN1CCC(c2ccccc2)CC1 | 204 | > 100000 | 2420 |
| CC(C)CNC(=O)c1cnc(NCCC2CCCN2C)nc1NC1CCCC1 (configuration not stated) | 1140 | > 10000 | 908 |
